Measured values published in patent publication US20060069132A1, “Azolecarboxamide herbicides” (priority 2004, published 2006).

Columns and labels:
[1] = system: smallflower umbrella sedge; test: Test C flooded paddy test; format: in vivo, Cyperus difformis
barnyardgrass [2] = test: Test B flooded paddy test; format: in vivo, Echinochloa crus-galli; details: 1000 g ai/ha, visual rating, scale 0 to 100 (0 no effect, 100 complete control), 13 to 15 days
Outline: (§1)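 Paddy species grown to the 2-leaf stage under flooding; blackgrass sprayed postemergence at 2–18 cm (1- to 4-leaf stage). Plants kept in a greenhouse for 13 to 15 days, then visually rated against controls on 0 (no effect) to 100 (complete control).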

giant foxtail = test: Test B pre-/postemergence herbicide test; format: in vivo, Setaria faberi; details: for Foxtail, Giant plant response rating: postemergence, scale 0 (no effect) to 100 (complete control)
Outline: (§2)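 Test chemicals in a non-phytotoxic solvent mixture with surfactant were applied preemergence to seeded species and postemergence to plants 2-18 cm tall (1- to 4-leaf stage); rice and barnyardgrass were also tested in a flooded paddy at the 2-leaf stage. Visual rating versus controls after 13-15 days in greenhouse, scale 0 (no effect) to 100 (complete control).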

corn = test: Test B pre-/postemergence herbicide test; format: in vivo, Zea mays; details: for Corn plant response rating: postemergence, scale 0 (no effect) to 100 (complete control)
Outline: as §2

large crabgrass = test: Test B pre-/postemergence herbicide test; format: in vivo, Digitaria sanguinalis; details: for Crabgrass, Large plant response rating: postemergence, scale 0 (no effect) to 100 (complete control)
Outline: as §2

rice [3] = test: Test C flooded paddy test; format: in vivo, Oryza sativa
Outline: (§3)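 Postemergence sprays applied to plants 2 to 18 cm tall (1- to 4-leaf stage); paddy species grown to 2-leaf stage under flooding. After 12 to 14 days in greenhouse, visual rating versus untreated controls on 0–100 scale (0 no effect, 100 complete control).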

barnyardgrass [4] = test: Test B pre-/postemergence herbicide test; format: in vivo, Echinochloa crus-galli; details: 0 = no effect, 100 = complete control, preemergence
Outline: as §2

[5] = system: small flower umbrella sedge; test: Test B flooded paddy test; format: in vivo, Cyperus difformis; details: 1000 g ai/ha, visual rating, scale 0 to 100 (0 no effect, 100 complete control), 13 to 15 days
Outline: as §1

barnyardgrass [6] = test: Test C flooded paddy test; format: in vivo, Echinochloa crus-galli
Outline: as §3

wheat = test: Test B postemergence herbicide test; format: in vivo, Triticum aestivum; parameters: key to Wheat plant response rating: 0 = no effect, 100 = complete control; details: postemergence, visual rating, scale 0 (no effect) to 100 (complete control)
Outline: (§4)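 Postemergence plants were sprayed with formulated test chemicals at 2 to 18 cm height (1- to 4-leaf stage); paddy species were grown to the 2-leaf stage. After 13 to 15 days in a greenhouse, injury was rated visually against untreated controls on a 0–100 scale (0 = no effect, 100 = complete control).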

cocklebur = test: Test B pre-/postemergence herbicide test; format: in vivo, Xanthium strumarium; details: for Cocklebur plant response rating: postemergence, scale 0 (no effect) to 100 (complete control)
Outline: as §2

rice [7] = test: Test B pre-/postemergence herbicide test; format: in vivo, Oryza sativa; details: 0 = no effect, 100 = complete control, preemergence
Outline: as §2

rice [8] = test: Test B flooded paddy test; format: in vivo, Oryza sativa; details: 1000 g ai/ha, visual rating, scale 0 to 100 (0 no effect, 100 complete control), 13 to 15 days
Outline: as §1

ducksalad [9] = test: Test B flooded paddy test; format: in vivo, Heteranthera limosa; details: 1000 g ai/ha, visual rating, scale 0 to 100 (0 no effect, 100 complete control), 13 to 15 days
Outline: as §1

blackgrass = test: Test B postemergence herbicide test; format: in vivo, Alopecurus myosuroides; details: postemergence, visual rating, scale 0 (no effect) to 100 (complete control)
Outline: as §1

wild oat = test: Test B postemergence herbicide test; format: in vivo, Avena fatua; details: postemergence, visual rating, scale 0 (no effect) to 100 (complete control)
Outline: as §4

pigweed = test: Test B pre-/postemergence herbicide test; format: in vivo, Amaranthus retroflexus
Outline: as §2

velvetleaf = test: Test B pre-/postemergence herbicide test; format: in vivo, Abutilon theophrasti; details: for Velvetleaf plant response rating: postemergence, scale 0 (no effect) to 100 (complete control)
Outline: as §2

Surinam grass = test: Test B pre-/postemergence herbicide test; format: in vivo, Urochloa decumbens; details: for Surinam Grass plant response rating: postemergence, scale 0 (no effect) to 100 (complete control)
Outline: as §2

ducksalad [10] = test: Test C flooded paddy test; format: in vivo, Heteranthera limosa
lambsquarters = test: Test B pre-/postemergence herbicide test; format: in vivo, Chenopodium album; details: for Lambsquarters plant response rating: postemergence, scale 0 (no effect) to 100 (complete control)
Outline: as §2

morningglory = test: Test B pre-/postemergence herbicide test; format: in vivo, Ipomoea coccinea; details: for Morningglory plant response rating: postemergence, scale 0 (no effect) to 100 (complete control)
Outline: as §2

[11] = 62 g ai/ha, scale 0 to 100 (0 no effect, 100 complete control)
[12] = 125 g ai/ha, scale 0 to 100 (0 no effect, 100 complete control)
[13] = 250 g ai/ha, scale of 0 to 100, 0 is no effect, 100 is complete control
[14] = 500 g ai/ha, visual rating after 12 to 14 days, scale 0 to 100 (0 no effect, 100 complete control)
[15] = 125 g ai/ha, 0 = no effect, 100 = complete control, preemergence
[16] = 500 g ai/ha, visual rating, 0 = no effect, 100 = complete control, preemergence

CCN(C)C(=O)c1cccc(NC(=O)c2sc(C(C)(C)C)nc2C)c1 [Compound 227]
80: Ducksalad plant response rating (ducksalad [9])
20: Cocklebur plant response rating (cocklebur; 125 g ai/ha, visual rating) | Blackgrass plant response rating (blackgrass; 125 g ai/ha) | Pigweed plant response rating (pigweed; postemergence, 125 g ai/ha, visual rating, scale 0 (no effect) to 100 (complete control)) | Velvetleaf plant response rating (velvetleaf; 125 g ai/ha, visual rating) | Plant response rating, Morningglory (morningglory; [16])
15: Plant response rating, Sedge, Umbrella [1, 14]
40: Corn plant response rating (corn; 500 g ai/ha, visual rating) | Crabgrass, Large plant response rating (0 to 100 scale) (large crabgrass; [15])
100: Plant response rating, Crabgrass, Large (large crabgrass; [16]) | Plant response rating, Pigweed (pigweed; [16]) | Plant response rating, Velvetleaf (velvetleaf; [16])
0: Sedge, Umbrella plant response rating [1, 11] | Sedge, Umbrella plant response rating [1, 12] | Sedge, Umbrella plant response rating [1, 13] | Corn plant response rating (0 to 100 scale) (corn; [15]) | Rice plant response rating (rice [3]; [11]) | Rice plant response rating (rice [3]; [12]) | Barnyardgrass plant response rating (0 to 100 scale) (barnyardgrass [4]; 125 g ai/ha) | Barnyardgrass plant response rating (barnyardgrass [6]; [11]) | Barnyardgrass plant response rating (barnyardgrass [6]; [12]) | Barnyardgrass plant response rating (barnyardgrass [6]; [13]) | Plant response rating, Barnyardgrass (barnyardgrass [6]; [14]) | Wheat plant response rating (wheat; 125 g ai/ha) | Cocklebur plant response rating (0 to 100 scale) (cocklebur; [15]) | Plant response rating, Cocklebur (cocklebur; [16]) | Oat, Wild plant response rating (wild oat; 125 g ai/ha) | Oat, Wild plant response rating (wild oat; 500 g ai/ha) | Pigweed plant response rating (0 to 100 scale) (pigweed; [15]) | Ducksalad plant response rating (ducksalad [10]; [11]) | Ducksalad plant response rating (ducksalad [10]; [12]) | Ducksalad plant response rating (ducksalad [10]; [13]) | Lambsquarters plant response rating (0 to 100 scale) (lambsquarters; [15]) | Morningglory plant response rating (0 to 100 scale) (morningglory; [15])
70: Barnyardgrass plant response rating (barnyardgrass [2]) | Plant response rating, Foxtail, Giant (giant foxtail; [16]) | Plant response rating, Rice (rice [7]; 500 g ai/ha, visual rating) | Rice plant response rating (rice [8]) | Velvetleaf plant response rating (velvetleaf; 500 g ai/ha, visual rating) | Plant response rating, Surinam Grass (Surinam grass; [16]) | Lambsquarters plant response rating (lambsquarters; 500 g ai/ha, visual rating)
60: Foxtail, Giant plant response rating (giant foxtail; 500 g ai/ha, visual rating) | Plant response rating, Barnyardgrass (barnyardgrass [4]; 500 g ai/ha, visual rating) | Morningglory plant response rating (morningglory; 500 g ai/ha, visual rating)
90: Plant response rating, Lambsquarters (lambsquarters; [16])
50: Plant response rating, Corn (corn; [16]) | Sedge, Umbrella plant response rating [5] | Lambsquarters plant response rating (lambsquarters; 125 g ai/ha, visual rating) | Morningglory plant response rating (morningglory; 125 g ai/ha, visual rating)
30: Corn plant response rating (corn; 125 g ai/ha, visual rating) | Crabgrass, Large plant response rating (large crabgrass; 125 g ai/ha, visual rating) | Crabgrass, Large plant response rating (large crabgrass; 500 g ai/ha, visual rating) | Cocklebur plant response rating (cocklebur; 500 g ai/ha, visual rating) | Blackgrass plant response rating (blackgrass; 500 g ai/ha) | Velvetleaf plant response rating (0 to 100 scale) (velvetleaf; [15]) | Surinam Grass plant response rating (0 to 100 scale) (Surinam grass; [15]) | Surinam Grass plant response rating (Surinam grass; 500 g ai/ha, visual rating)
10: Foxtail, Giant plant response rating (0 to 100 scale) (giant foxtail; [15]) | Foxtail, Giant plant response rating (giant foxtail; 125 g ai/ha, visual rating) | Wheat plant response rating (wheat; 500 g ai/ha) | Rice plant response rating (0 to 100 scale) (rice [7]; 125 g ai/ha) | Surinam Grass plant response rating (Surinam grass; 125 g ai/ha, visual rating)
25: Rice plant response rating (rice [3]; [13])
55: Plant response rating, Rice (rice [3]; [14]) | Plant response rating, Ducksalad (ducksalad [10]; [14])
